Test results from patent publication US20230183248A1, “PYRROLO[1,2-D][1,2,4]TRIAZINE-2-YL-ACETAMIDES AS INHIBITORS OF THE NLRP3 INFLAMMASOME PATHWAY” (JANSSEN PHARMACEUTICA NV, priority 2020, published 2023).

Columns and labels:
TNF = experiment: PBMC assay: LPS-stimulated TNF cytokine levels; type: cell-based; settings: Homo sapiens, PBMC, human PBMCs, 30 min compound pre-incubation, 100 ng/ml LPS for 6 hrs, supernatant, MSD
Protocol: (§1) Peripheral venous blood was collected from healthy individuals and human peripheral blood mononuclear cells (PBMCs) were isolated from blood by Ficoll-Histopaque (Sigma-Aldrich, A0561) density gradient centrifugation. After isolation, PBMCs were stored in liquid nitrogen for later use. Upon thawing, PBMC cell viability was determined in growth medium (RPMI media supplemented with 10% fetal bovine serum, 1% Pen-Strep and 1% L-glutamine). Compounds were spotted in a 1:3 serial dilution in DMSO and diluted to the final concentration in 30 µl medium in 96 well plates (Falcon, 353072). PBMCs were added at a density of 7.5 × 10^4 cells per well and incubated for 30 min in a 5% CO2 incubator at 37° C. LPS stimulation was performed by addition of 100 ng/ml LPS (final concentration, Invivogen, tlrl-smlps) for 6 hrs followed by collection of cellular supernatant and the analysis of IL-1β […] and TNF cytokines levels (µM) via MSD technology according to manufacturers’ guidelines (MSD, K151A0H).
(§2) The IC50 values (for IL-1β) and EC50 values (TNF) were obtained on compounds of the invention/examples, and are depicted in the following table: […]

IL-1β = experiment: PBMC assay: LPS-stimulated IL-1β release; type: cell-based; settings: human PBMCs, 30 min compound pre-incubation, 100 ng/ml LPS for 6 hrs, supernatant, MSD
Protocol: as §1, §2

Row | EC50 (TNF) [µM] | IC50 (IL-1β; Homo sapiens, PBMC) [µM] | melting point [°C] | IC50 (IL-1β) [µM] | Structure (SMILES)
1 | > 10 | 1.67 | 216.46 |  | CC(C)c1nn(CC(=O)Nc2ccncn2)c(=O)c2cc(C(F)F)cn12 [Compound 29F]
2 | > 10 | > 10 | 284.78 |  | CC(=O)c1nn(CC(=O)Nc2ccncn2)c(=O)c2cc(C(C)C)cn12 [Compound 35F, 2-(4-acetyl-7-isopropyl-1-oxo-pyrrolo[1,2-d][1,2,4]triazin-2-yl)-N-pyrimidin-4-yl-acetamide]
3 | > 10 | 3.7 | 185.03 |  | C=C(C)c1cc2c(=O)n(CC(=O)Nc3ccncn3)nc(C(C)C)n2c1 [Compound 16F, 2-(4-isopropyl-1-oxo-7-(prop-1-en-2-yl)pyrrolo[1,2-d][1,2,4]triazin-2(1H)-yl)-N-(pyrimidin-4-yl)acetamide]
4 | > 10 | > 10 | 194.5 |  | CC(C)c1nn(CC(=O)Nc2ccncn2)c(=O)c2cc(F)cn12 [Compound 7F]
5 | > 10 | > 10 | 217.95 |  | CC(C)c1nn(CC(=O)NC2CCOCC2)c(=O)c2cc(-c3ccccc3)cn12 [Compound 48F]
6 | > 10 | ~1.77 | 181.03 |  | CC(C)c1cc2c(=O)n(CC(=O)NC3CCOCC3)nc(C(C)C)n2c1 [Compound 51F]
7 | > 10 | 0.16 | 196.59 |  | CC(C)c1cc2c(=O)n(CC(=O)N[C@H]3C[C@@](C)(O)C3)nc(C(C)C)n2c1 [Compound 68F]
8 | > 10 | ~0.38 | 182.51 |  | CC(C)c1nn(CC(=O)Nc2ccncn2)c(=O)c2cc(C3CC3)cn12 [Compound 50F]
9 | > 10 | 3.4 | 211.91 |  | CC(C)c1nn(CC(=O)Nc2ccncc2F)c(=O)c2cc(Cl)cn12 [Compound 9F]
10 | > 10 | 1.37 | 201.37 |  | COCc1nn(CC(=O)Nc2ccncn2)c(=O)c2cc(C(C)C)cn12 [Compound 63F]
11 | > 10 | 7.08 | 279.37 | 6.9 | CC(=O)NC(C)c1nn(CC(=O)Nc2ccncn2)c(=O)c2cc(C(C)C)cn12 (centres unmarked) [Compound 65F]
12 | > 10 | 0.32 | 224.87 |  | C/C(=N/O)c1nn(CC(=O)N[C@H]2C[C@@](C)(O)C2)c(=O)c2cc(C(C)C)cn12 [Compound 64F]
13 | > 10 | 1.4 | 156.3 |  | CCc1cc2c(=O)n(CC(=O)Nc3ccncn3)nc(N(C)CC)n2c1 [Compound 74F]
14 | > 10 | 0.35 | 178.1 |  | CCc1cc2c(=O)n(CC(=O)Nc3ccncn3)nc(N(C)C)n2c1 [Compound 73F, 2-(4-(dimethylamino)-7-ethyl-1-oxopyrrolo[1,2-d][1,2,4]triazin-2(1H)-yl)-N-(pyrimidin-4-yl)acetamide]
15 | > 10 | 5.05 | 247.56 |  | CC(C)c1cc2c(=O)n(CC(=O)Nc3ccncn3)nc(C(C)O)n2c1 (centres unmarked) [Compound 36F, 2-[4-(1-hydroxyethyl)-7-isopropyl-1-oxo-pyrrolo[1,2-d] [1,2,4]triazin-2-yl]-N-pyrimidin-4-yl-acetamide]
16 | > 10 | > 10 | 167.68 |  | CCc1nn(CC(=O)Nc2ccccc2OC)c(=O)c2cccn12 [Compound 13F]
17 | > 10 | 0.67 | 142.64 |  | CCc1cc2c(=O)n(CC(=O)Nc3ccncc3F)nc(C(C)C)n2c1 [Compound 22F]
18 | > 10 | 1.89 | 201.01 |  | C=C(OC)c1nn(CC(=O)Nc2ccncn2)c(=O)c2cc(C(C)C)cn12 [Compound 27F, 2-[7-isopropyl-4-(1-methoxyvinyl)-1-oxo-pyrrolo[1,2-d][1,2,4]triazin-2-yl]-N-pyrimidin-4-yl-acetamide]
19 | > 10 | 3.62 |  |  | CC(C)c1nn(CC(=O)Nc2ccncn2)c(=O)c2cc(CCC(F)(F)F)cn12 [Compound 33F, 2-[4-isopropyl-1-oxo-7-(3,3,3-trifluoropropyl)pyrrolo[1,2-d][1,2,4]triazin-2-yl]-N-pyrimidin-4-yl-acetamide]
20 | > 10 | > 10 |  |  | CC(C)c1cc2c(=O)n(CC(=O)Nc3ccncn3)nc(C3CNC3)n2c1 [Compound 45F]
21 | > 10 | > 10 |  |  | CC(=O)N1CC(c2nn(CC(=O)Nc3ccncn3)c(=O)c3cc(C(C)C)cn23)C1 [Compound 46F]

Row | EC50 (TNF) [µM] | IC50 (IL-1β; Homo sapiens, PBMC) [µM] | melting point [°C] | IC50 (IL-1β) [µM] | Structure (SMILES)
22 | > 10 | > 10 |  |  | CC(C)c1nn(CC(=O)Nc2ccncn2)c(=O)c2cc(C#N)cn12 [Compound 42F]
23 | > 10 | 0.35 |  |  | CC(C)c1cc2c(=O)n(CC(=O)Nc3ccncn3)nc(C(C)C)n2c1 [Compound 19F]
24 | > 10 | > 10 |  |  | CC(C)c1nn(CC(=O)Nc2ccncn2)c(=O)c2cc(-c3cn(C)cn3)cn12 [Compound 93F, 2-(4-isopropyl-7-(1-methyl-1H-imidazol-4-yl)-1-oxopyrrolo[1,2-d][1,2,4]triazin-2(1H)-yl)-N-(pyrimidin-4-yl)acetamide]
25 | > 10 | 1.01 | 166.41 |  | CCCCc1nn(CC(=O)Nc2ccncn2)c(=O)c2cc(C(C)C)cn12 [Compound 61F]
26 | > 10 | 0.47 | 149.7 |  | CCCc1cc2c(=O)n(CC(=O)Nc3ccncn3)nc(C(C)C)n2c1 [Compound 59F]
27 | > 10 | 8.26 |  |  | CC(C)c1nn(CC(=O)Nc2ccncn2)c(=O)c2cc(C(C)(C)F)cn12 [Compound 87F, 2-(7-(2-fluoropropan-2-yl)-4-isopropyl-1-oxopyrrolo[1,2-d][1,2,4]triazin-2(1H)-yl)-N-(pyrimidin-4-yl)acetamide]
28 | > 10 | 5.14 |  |  | COC(C)c1nn(CC(=O)Nc2ccncn2)c(=O)c2cc(C(C)C)cn12 (centres unmarked) [Compound 31F, 2-[7-isopropyl-4-(1-methoxyethyl)-1-oxo-pyrrolo[1,2-d][1,2,4]triazin-2-yl]-N-pyrimidin-4-yl-acetamide]
29 | > 10 | 4.31 |  |  | CC(C)c1nn(CC(=O)Nc2ccncn2)c(=O)c2cc(C(C)F)cn12 (centres unmarked) [Compound 39F, 2-[7-(1-fluoroethyl)-4-isopropyl-1-oxo-pyrrolo[1,2-d][1,2,4]triazin-2-yl]-N-pyrimidin-4-yl-acetamide]
30 | > 10 | > 10 |  |  | CC(C)c1cc2c(=O)n(CC(=O)Nc3ccncn3)nc(N3CCOCC3)n2c1 [Compound 25F]
31 | > 10 | 3.67 |  |  | CC(C)c1nn(CC(=O)Nc2ccncn2)c(=O)c2cc(Cl)cn12 [Compound 6F]
32 | > 10 | > 10 |  |  | CC(C)c1nn(CC(=O)Nc2ccncn2)c(=O)c2cc(C(C)(C)O)cn12 [Compound 86F, 2-(7-(2-hydroxypropan-2-yl)-4-isopropyl-1-oxopyrrolo[1,2-d][1,2,4]triazin-2(1H)-yl)-N-(pyrimidin-4-yl)acetamide]
33 | > 10 | 0.68 |  |  | CCc1nn(CC(=O)Nc2ccncc2F)c(=O)c2cc(C3CC3)cn12 [Compound 21F]
34 | > 10 | 0.89 | 184.19 |  | COCCc1nn(CC(=O)Nc2ccncn2)c(=O)c2cc(C(C)C)cn12 [Compound 24F]
35 |  | 0.37 | 171.4 |  | CCc1cc2c(=O)n(CC(=O)N[C@H]3C[C@@](C)(O)C3)nc(N(C)C)n2c1 [Compound 58F]
36 | > 10 | 0.89 |  |  | CC(C)c1nn(CC(=O)Nc2ccncc2F)c(=O)c2cc(Br)cn12 [Compound 10F]
37 | > 10 | 1.32 | 150.14 |  | CCN(C)c1nn(CC(=O)Nc2ccncn2)c(=O)c2cc(C(C)C)cn12 [Compound 26F]
38 | > 10 | 1.47 |  |  | CCCCc1nn(CC(=O)N[C@H]2C[C@@](C)(O)C2)c(=O)c2cc(C(C)C)cn12 [Compound 60F]
39 | > 10 | 2.23 |  |  | CC(C)c1cc2c(=O)n(CC(=O)N[C@H]3C[C@@](C)(O)C3)nc(C(C)OC3CC3)n2c1 (some centres unmarked) [Compound 62F]
40 | > 10 | > 10 | 209.7 |  | CC(C)c1nn(CC(=O)Nc2ccncn2)c(=O)c2cc(-c3ccccc3)cn12 [Compound 47F]
41 | > 10 | 0.36 | 166.33 |  | CC(C)c1cc2c(=O)n(CC(=O)Nc3ccncn3)nc(N(C)C)n2c1 [Compound 55F]
42 | > 10 | > 10 | 262.3 |  | CC(=O)c1cc2c(=O)n(CC(=O)Nc3ccncn3)nc(C(C)C)n2c1 [Compound 85F, 2-(7-acetyl-4-isopropyl-1-oxopyrrolo[1,2-d][1,2,4]triazin-2(1H)-yl)-N-(pyrimidin-4-yl)acetamide]
